19 compounds from ChEMBL document CHEMBL1145588, “Design, synthesis, and structure-activity relationships of piperidine and dehydropiperidine carboxylic acids as novel, potent dual PPARalpha/gamma agonists” (Bioorg Med Chem Lett, 2008) can be followed below.

In test [1] the target is Peroxisome proliferator-activated receptor gamma (Homo sapiens) (UniProt P37231). The experiment in a line: Binding affinity at human PPARgamma by fluorescence polarization.
In test [2] the target is T1, Peroxisome proliferator-activated receptor gamma (Homo sapiens, UniProt P37231).
T1 sequence (P37231 whole entry): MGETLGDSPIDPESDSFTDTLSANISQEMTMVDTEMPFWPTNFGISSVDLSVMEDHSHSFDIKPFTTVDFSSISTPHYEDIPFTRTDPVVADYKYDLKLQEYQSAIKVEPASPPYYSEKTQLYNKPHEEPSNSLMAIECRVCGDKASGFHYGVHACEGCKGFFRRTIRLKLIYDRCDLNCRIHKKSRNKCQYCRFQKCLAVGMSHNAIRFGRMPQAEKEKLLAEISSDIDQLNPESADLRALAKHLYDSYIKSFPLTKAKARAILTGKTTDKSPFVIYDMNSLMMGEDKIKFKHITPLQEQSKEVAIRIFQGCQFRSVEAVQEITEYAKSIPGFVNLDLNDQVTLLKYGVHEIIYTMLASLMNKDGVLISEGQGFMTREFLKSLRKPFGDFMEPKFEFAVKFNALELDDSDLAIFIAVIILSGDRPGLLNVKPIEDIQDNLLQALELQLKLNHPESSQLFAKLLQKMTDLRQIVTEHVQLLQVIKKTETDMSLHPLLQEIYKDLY
As to the kind of experiment: Agonist activity at human PPARgamma expressed in HEK293 cells assessed as luciferase activity by GAL4 transactivation assay. The class given is functional, cell-based.

For test [3], the target named is T2, Peroxisome proliferator-activated receptor alpha (Homo sapiens, UniProt Q07869).
T2 sequence (Q07869 whole entry): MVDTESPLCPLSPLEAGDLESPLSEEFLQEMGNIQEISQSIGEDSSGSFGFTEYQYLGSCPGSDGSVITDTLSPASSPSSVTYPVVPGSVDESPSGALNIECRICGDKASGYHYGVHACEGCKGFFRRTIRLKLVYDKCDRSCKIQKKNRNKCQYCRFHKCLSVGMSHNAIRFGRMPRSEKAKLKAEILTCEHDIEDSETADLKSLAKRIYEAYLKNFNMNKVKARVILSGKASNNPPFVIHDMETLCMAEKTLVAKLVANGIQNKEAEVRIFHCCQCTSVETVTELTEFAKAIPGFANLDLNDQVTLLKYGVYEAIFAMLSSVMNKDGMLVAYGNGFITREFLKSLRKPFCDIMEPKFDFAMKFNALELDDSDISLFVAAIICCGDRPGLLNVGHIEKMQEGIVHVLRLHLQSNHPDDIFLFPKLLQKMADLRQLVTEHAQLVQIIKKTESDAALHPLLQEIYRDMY
As to the kind of experiment: Agonist activity at human PPARalpha expressed in HEK293 cells assessed as luciferase activity by GAL4 transactivation assay. Format: functional, cell-based.

Test [4] addresses Peroxisome proliferator-activated receptor alpha (Homo sapiens) (UniProt Q07869). As to the kind of experiment: Binding affinity at human PPARalpha by fluorescence polarization. On the technique in general: Fluorescence polarisation rises when a labelled molecule tumbles more slowly, as on binding a larger partner.

Some results are limits rather than exact numbers.

For the compound `Cc1oc(-c2ccccc2)nc1CCOc1cccc(CC2=CN(c3nccc(C(F)(F)F)n3)CCC2C(=O)O)c1` (racemic), the figures for the IC50 in test [1] and in test [4] were 287 nM and 1080 nM, respectively. Besides, the EC50 – broadly, the concentration giving half of the maximal effect – worked out at 14 nM in test [2] and 23 nM in test [3].
Consider `Cc1oc(-c2ccccc2)nc1CCOc1ccc(C[C@@H]2CN(c3nccc(C(F)(F)F)n3)C[C@@H]2C(=O)O)cc1`, for which the EC50 came to 7 nM in test [2] and 165 nM in test [3].
For `Cc1oc(-c2ccccc2)nc1CCOc1cccc(CC2=CN(C(=O)OCc3ccccc3)CCC2C(=O)O)c1` (racemic), the IC50 (commonly the concentration that inhibits the measured activity by half) in test [1] is 133 nM; in test [4], 654 nM. The EC50 in test [2] is 24 nM; in test [3] it was 16 nM.
Take `Cc1oc(-c2ccccc2)nc1CCOc1cccc(CC2=C(C(=O)O)CCN(c3nccc(C(F)(F)F)n3)C2)c1`: the IC50 is 1380 nM in test [1] and 1330 nM in test [4]. In addition, the EC50 turned out to be 644 nM in test [2] and 89 nM in test [3].
Take `Cc1oc(-c2ccccc2)nc1CCOc1cccc(C2CN(C(=O)OCC(C)C)CCC2CC(=O)O)c1` (racemic): the IC50 in test [1] is 3090 nM; in test [4] it was greater than 15000 nM. Further, the EC50 was 490 nM in test [2] and 580 nM in test [3].
On to `Cc1oc(-c2ccccc2)nc1CCOc1ccc(CC2=C(C(=O)O)CCN(C(=O)OCC(C)C)C2)cc1`, for which the IC50 in test [1] worked out at 3040 nM; in test [4] it was 1170 nM. Moreover, the EC50 was 1120 nM in test [2] and 28 nM in test [3].
`Cc1oc(-c2ccccc2)nc1CCOc1cccc(CC2=C(C(=O)O)CCN(C(=O)OCc3ccccc3)C2)c1`: the results for the IC50 in test [1] and in test [4] were 4730 nM and greater than 15000 nM, respectively. Further, the EC50 in test [2] was greater than 3500 nM; in test [3] it was 4920 nM.
In the case of `Cc1oc(-c2ccccc2)nc1CCOc1ccc(CCC2=C(C(=O)O)CCN(C(=O)OCC(C)C)C2)cc1`, the IC50 in test [1] is 110 nM; in test [4], 255 nM. The figures for the EC50 in test [2] and in test [3] were 74 nM and 56 nM, respectively.
Turning to `Cc1oc(-c2ccccc2)nc1CCOc1cccc(C2CN(C(=O)OCC(C)C)CCC2C(=O)O)c1` (racemic), the figures for the half-maximal inhibitory concentration (IC50) in test [1] and in test [4] were greater than 27300 nM and 7620 nM, respectively. The EC50 in test [2] is greater than 7500 nM; in test [3], 209 nM.
For the compound `COc1ccc(OC(=O)N(CC(=O)O)Cc2ccc(OCCc3nc(-c4ccccc4)oc3C)cc2)cc1` [MURAGLITAZAR], the EC50 in test [3] turned out to be 1410 nM.
Turning to `Cc1oc(-c2ccccc2)nc1CCOc1cccc(C2=C(CC(=O)O)CCN(C(=O)OCC(C)C)C2)c1`, the IC50 stood at 49 nM in test [1] and 130 nM in test [4]. Moreover, the figures for the EC50 in test [2] and in test [3] were 18 nM and 6 nM, respectively.
As for `CCCOC(=O)N1CCC(C(=O)O)=C(Cc2cccc(OCCc3nc(-c4ccccc4)oc3C)c2)C1`, the EC50 in test [2] came out at 180 nM.
Take `Cc1oc(-c2ccccc2)nc1CCOc1ccc(C2=C(C(=O)O)CCN(C(=O)OCC(C)C)C2)cc1`: the results for the IC50 in test [1] and in test [4] were 7400 nM and greater than 27300 nM, respectively. Moreover, the EC50 in test [2] amounted to 4650 nM; in test [3] it was 5570 nM.
In the same order, the values of `Cc1oc(-c2ccccc2)nc1CCOc1cccc(C2CN(C(=O)Oc3ccccc3)CCC2CC(=O)O)c1` (racemic) are 7690 nM, 8120 nM, 1290 nM and 170 nM.
As to `Cc1oc(-c2ccccc2)nc1CCOc1cccc(CC2CN(C(=O)OCC(C)C)CCC2C(=O)O)c1` (racemic), the IC50 in test [1] stood at 6030 nM; in test [4], 1370 nM. Moreover, the half-maximal effective concentration (EC50) in test [2] stood at 1070 nM; in test [3], 18 nM.
Take `Cc1oc(-c2ccccc2)nc1CCOc1ccc(CCC2CN(C(=O)OCC(C)C)CCC2C(=O)O)cc1` (racemic): the results for the IC50 in test [1] and in test [4] were 450 nM and 711 nM, respectively. The EC50 stood at 263 nM in test [2] and 44 nM in test [3].
As to `Cc1oc(-c2ccccc2)nc1CCOc1ccc(CC2CN(C(=O)OCC(C)C)CCC2C(=O)O)cc1` (racemic), the 50% inhibitory concentration (IC50) in test [1] is 1250 nM; in test [4], 215 nM. Besides, the EC50 in test [2] is 257 nM; in test [3], 5 nM.
In the case of `Cc1oc(-c2ccccc2)nc1CCOc1cccc(C2=C(C(=O)O)CCN(Cc3ccccc3)C2)c1`, the IC50 in test [1] and in test [4] was greater than 27500 nM each time. Also, the EC50 in test [2] and in test [3] was greater than 7500 nM each time.
For `Cc1oc(-c2ccccc2)nc1CCOc1cccc(C2=C(CC(=O)O)CCN(C(=O)Oc3ccccc3)C2)c1`, the IC50 in test [1] is 34 nM; in test [4], 16 nM. In addition, the EC50 in test [2] was found to be 46 nM; in test [3] it was 4 nM.
